Test results published in US9789101B2, “Methods and compositions for treating microbial infection using pyrroloquinone” (HELPERBY THERAPEUTICS LIMITED, priority 2010, dated 2017).
Counter-ions that a name gives are not always drawn.

Tests used:
[1] = tested on: log phase Staphylococcus aureus; experiment: Chequerboard analysis of HT00800059 and mupirocin against log phase Staphylococcus aureus; format: cell-based, Staphylococcus aureus (Oxford); settings: for optical density reading at 405 nm: 24 hours
Protocol: Staphylococcus aureus (Oxford); Gram positive; Reference strain. Log phase growth of […] sensitive Staphylococcus aureus (MSSA) was carried out as follows: • Bacteria were grown in 10 ml of nutrient broth (No. 2, (Oxoid)) overnight at 37° C. with continuous shaking at 120 rpm. […] The cultures were incubated at 37° C. with shaking for 1-2 hours to reach log CFU 6. Viability of the bacteria was estimated by colony forming unit (CFU) counts. From serial 10-fold dilutions of the experimental cultures, 100 μl samples were added to triplicate plates of nutrient agar plates (Oxoid) or blood agar plates (Oxoid). CFUs were counted after incubation of the plates at 37° C. for 24 hours. […] 290 μl of the cell suspension was added to each well of the 96 well plate, which was incubated at 37° C. for 24 hours. […] MIC determination: The optical density of the bacterial cells was read at 405 nm using a plate reader (Bio TEK). The MIC concentration was determined as the lowest concentration of drug which inhibits the bacterial growth. […] HT00800059 was dissolved in H2O to the stock solution 30.07 mg/ml. […] HT00800059 (30.7 mg/ml) was performed in a serial of 2 fold dilutions. This was followed by the addition of 280 μl of log phase culture at 10^6 CFU/ml to make the final concentrations of each drug as shown. In the above table, values in bold text are for HT00800059. Values in plain text are for mupirocin. The numbers shown in each well are μg/ml. Incubation of the compounds with the bacterial suspension was carried out for 24 hours. The kill effects of the drug combination were measured by optical density reading at 405 nm with a plate reader (Bio TEK). The fractional inhibitory concentration (FIC) index was carried out as following: (MIC of drug A, tested in combination)/(MIC of drug A, tested alone)+(MIC of drug B, tested in combination)/(MIC of drug B, tested alone). The interaction was defined as synergistic if the FIC index was <1, additive if the FIC index was =1 and antagonistic if the FIC index was >1.

[2] = tested on: Mupirocin Resistant S. aureus (28 Passages); experiment: Chequerboard analysis of HT00800059 and mupirocin against mupirocin resistant S. aureus (28 passages); format: cell-based, Staphylococcus aureus
Protocol: (§1) Staphylococcus aureus (Oxford); Gram positive; Reference strain.
(§2) Log phase growth of mupirocin resistant Staphylococcus aureus (MSSA) was carried out as follows: • Bacteria were grown in 10 ml of nutrient broth (No. 2, (Oxoid)) overnight at 37° C. with continuous shaking at 120 rpm. The overnight cultures were diluted 1000× with iso-sensitest broth. The cultures were incubated at 37° C. with shaking for 1-2 hours to reach log CFU 6. Viability of the bacteria was estimated by colony forming unit (CFU) counts. From serial 10-fold dilutions of the experimental cultures, 100 μl samples were added to triplicate plates of nutrient agar plates (Oxoid) or blood agar plates (Oxoid). CFUs were counted after incubation of the plates at 37° C. for 24 hours.
(§3) Bacterial cultures: 10 μl of overnight cultures was added to 10 ml of fresh iso-sensitest broth to make the inoculation to 10^6 CFU/ml. 290 μl of the cell suspension was added to each well of the 96 well plate, which was incubated at 37° C. for 24 hours. 300 μl of iso-sensitest broth without bacterial cells were added to wells of the plate as a no bacterial control.
(§4) MIC determination: The optical density of the bacterial cells was read at 405 nm using a plate reader (Bio TEK). The MIC concentration was determined as the lowest concentration of drug which inhibits the bacterial growth.
(§5) Mupirocin was dissolved in DMSO to the stock concentration of 10 mg/ml. HT00800059 was dissolved in H2O to the stock solution 30.07 mg/ml.
(§6) Mupirocin (10 mg/ml) was firstly diluted to 3.84 mg/ml, then further diluted in a serial of 2 fold dilutions. HT00800059 (30.7 mg/ml) was performed in a serial of 2 fold dilutions.
(§7) This was followed by the addition of 280 μl of log phase culture at 10^6 CFU/ml to make the final concentrations of each drug as shown in Table 1 and Table 2.
(§8) In the above table, values in bold text are for HT00800059. Values in plain text are for mupirocin. The numbers shown in each well are μg/ml.
(§9) Incubation of the compounds with the bacterial suspension was carried out for 24 hours. The kill effects of the drug combination were measured by optical density reading at 405 nm with a plate reader (Bio TEK).
(§10) The fractional inhibitory concentration (FIC) index was carried out as following: (MIC of drug A, tested in combination)/(MIC of drug A, tested alone)+(MIC of drug B, tested in combination)/(MIC of drug B, tested alone). The interaction was defined as synergistic if the FIC index was <1, additive if the FIC index was =1 and antagonistic if the FIC index was >1.

[3] = tested on: Mupirocin Resistant S. aureus (24 Passages); experiment: Chequerboard analysis of HT00800059 and mupirocin against mupirocin resistant S. aureus (24 passages); format: cell-based, Staphylococcus aureus
Protocol: as §1, §2, §3, §4, §5, §6, §7, §8, §9, §10

[4] = Staphylococcus aureus, read-out: alone MIC

## CCCCOc1ccc(C(=O)CCN2CCCCC2)cc1 [HT00800059, dyclonine (1-(4-Butoxyphenyl)-3-(1-piperidinyl)-1-propanone) hydrochloride]
[1]; [4]
  MIC: 512 µg/mL
[1]; iso-sensitest broth
  MIC before combination: 512 µg/mL
  MIC post combination: 64 µg/mL
[1]; iso-sensitest broth, HT00800059 1 μg/ml, mupirocin μg/ml: 1,0.5,0.25,0.125,0.0625,0.03125,0.015625,0
  optical density reading at 405 nm: 1.49
[1]; iso-sensitest broth, HT00800059 2 μg/ml, mupirocin μg/ml: 1,0.5,0.25,0.125,0.0625,0.03125,0.015625,0
  optical density reading at 405 nm: 1.47
[1]; iso-sensitest broth, HT00800059 4 μg/ml, mupirocin μg/ml: 1,0.5,0.25,0.125,0.0625,0.03125,0.015625,0
  optical density reading at 405 nm: 1.46
[1]; iso-sensitest broth, HT00800059 8 μg/ml, mupirocin μg/ml: 1,0.5,0.25,0.125,0.0625,0.03125,0.015625,0
  optical density reading at 405 nm: 1.47
[1]; iso-sensitest broth, HT00800059 16 μg/ml, mupirocin μg/ml: 1,0.5,0.25,0.125,0.0625,0.03125,0.015625,0
  optical density reading at 405 nm: 1.52
[1]; iso-sensitest broth, HT00800059 32 μg/ml, mupirocin μg/ml: 1,0.5,0.25,0.125,0.0625,0.03125,0.015625,0
  optical density reading at 405 nm: 1.55
[1]; iso-sensitest broth, HT00800059 64 μg/ml, mupirocin μg/ml: 1,0.5,0.25,0.125,0.0625,0.03125,0.015625,0
  optical density reading at 405 nm: 1.34
[1]; iso-sensitest broth, HT00800059 128 μg/ml, mupirocin μg/ml: 1,0.5,0.25,0.125,0.0625,0.03125,0.015625,0
  optical density reading at 405 nm: 1.20
[1]; iso-sensitest broth, HT00800059 256 μg/ml, mupirocin μg/ml: 1,0.5,0.25,0.125,0.0625,0.03125,0.015625,0
  optical density reading at 405 nm: 1.09
[1]; iso-sensitest broth, HT00800059 512 μg/ml, mupirocin μg/ml: 1,0.5,0.25,0.125,0.0625,0.03125,0.015625,0
  optical density reading at 405 nm: 0.36
[1]; iso-sensitest broth, HT00800059 1024 μg/ml, mupirocin μg/ml: 1,0.5,0.25,0.125,0.0625,0.03125,0.015625,0
  optical density reading at 405 nm: 0.36
[1]; nutrient broth
  MIC before combination: 512 µg/mL
  MIC post combination: 64 µg/mL
[1]; nutrient broth, HT00800059 1 μg/ml, mupirocin μg/ml: 1,0.5,0.25,0.125,0.625 [sic],0.03125,0.15625 [sic],0
  optical density reading at 405 nm: 0.858
[1]; nutrient broth, HT00800059 2 μg/ml, mupirocin μg/ml: 1,0.5,0.25,0.125,0.625 [sic],0.03125,0.15625 [sic],0
  optical density reading at 405 nm: 0.884
[1]; nutrient broth, HT00800059 4 μg/ml, mupirocin μg/ml: 1,0.5,0.25,0.125,0.625 [sic],0.03125,0.15625 [sic],0
  optical density reading at 405 nm: 0.885
[1]; nutrient broth, HT00800059 8 μg/ml, mupirocin μg/ml: 1,0.5,0.25,0.125,0.625 [sic],0.03125,0.15625 [sic],0
  optical density reading at 405 nm: 0.867
[1]; nutrient broth, HT00800059 16 μg/ml, mupirocin μg/ml: 1,0.5,0.25,0.125,0.625 [sic],0.03125,0.15625 [sic],0
  optical density reading at 405 nm: 0.840
[1]; nutrient broth, HT00800059 32 μg/ml, mupirocin μg/ml: 1,0.5,0.25,0.125,0.625 [sic],0.03125,0.15625 [sic],0
  optical density reading at 405 nm: 0.759
[1]; nutrient broth, HT00800059 64 μg/ml, mupirocin μg/ml: 1,0.5,0.25,0.125,0.625 [sic],0.03125,0.15625 [sic],0
  optical density reading at 405 nm: 0.721
[1]; nutrient broth, HT00800059 128 μg/ml, mupirocin μg/ml: 1,0.5,0.25,0.125,0.625 [sic],0.03125,0.15625 [sic],0
  optical density reading at 405 nm: 0.528
[1]; nutrient broth, HT00800059 256 μg/ml, mupirocin μg/ml: 1,0.5,0.25,0.125,0.625 [sic],0.03125,0.15625 [sic],0
  optical density reading at 405 nm: 0.524
[1]; nutrient broth, HT00800059 512 μg/ml, mupirocin μg/ml: 1,0.5,0.25,0.125,0.625 [sic],0.03125,0.15625 [sic],0
  optical density reading at 405 nm: 0.284
[1]; nutrient broth, HT00800059 1024 μg/ml, mupirocin μg/ml: 1,0.5,0.25,0.125,0.625 [sic],0.03125,0.15625 [sic],0
  optical density reading at 405 nm: 0.291
[1]; with mupirocin 0.125 μg/ml
  HT00800059 MIC in combination: 64 µg/mL
[2]; [4]
  MIC: 512 µg/mL
[2]; resistant strain 28 passages
  MIC before combination: 512 µg/mL
  MIC post combination: 64 µg/mL
[2]; with mupirocin 32 μg/ml, 28 passages
  HT00800059 MIC in combination: 64 µg/mL
[3]; [4]
  MIC: 512 µg/mL
[3]; resistant strain 24 passages
  MIC before combination: 512 µg/mL
  MIC post combination: 64 µg/mL
[3]; with mupirocin 8 μg/ml, 24 passages
  HT00800059 MIC in combination: 64 µg/mL
